Measurements published in patent US20210363254A1, “PHARMACEUTICAL COMBINATIONS” (Novartis AG, priority 2018, published 2021).
Where two headings read alike, the source gives them in different places.

COc1ncc(-c2nc3c(n2C(C)C)[C@H](c2ccc(Cl)cc2)N(c2cc(Cl)cn(C)c2=O)C3=O)c(OC)n1 [HDM201, (S)-5-(5-Chloro-1-methyl-2-oxo-1,2-dihydro-pyridin-3-yl)-6-(4-chloro-phenyl)-2-(2,4-dimethoxy-pyrimidin-5-yl)-1-isopropyl-5,6-dihydro-1H-pyrrolo[3,4-d]imidazol-4-one]
0 n (%): Decreased Appetite, Grade 3/4 (1B 150 mg, N=8) | Dehydration, All Grades (1B 150 mg, N=8) | Dehydration, Grade 3/4 (1B 150 mg, N=8) | Diarrhoea, Grade 3/4 (1B 150 mg, N=8) | Dry Skin, All Grades (1B 150 mg, N=8) | Dry Skin, Grade 3/4 (1B 150 mg, N=8) | Dysgeusia, All Grades (1B 150 mg, N=8) | Dysgeusia, Grade 3/4 (1B 150 mg, N=8) | Eye Pain, Grade 3/4 (1B 150 mg, N=8) | Folliculitis, Grade 3/4 (1B 150 mg, N=8) | Gamma-Glutamyltransferase Increased, Grade 3/4 (1B 150 mg, N=8) | Headache, Grade 3/4 (1B 150 mg, N=8) | Hyperkalaemia, All Grades (1B 150 mg, N=8) | Hyperkalaemia, Grade 3/4 (1B 150 mg, N=8) | Hypocalcaemia, All Grades (1B 150 mg, N=8) | Hypocalcaemia, Grade 3/4 (1B 150 mg, N=8) | Influenza Like Illness, Grade 3/4 (1B 150 mg, N=8) | Lethargy, Grade 3/4 (1B 150 mg, N=8) | Monocytosis, All Grades (1B 150 mg, N=8) | Monocytosis, Grade 3/4 (1B 150 mg, N=8) | Musculoskeletal Pain, All Grades (1B 150 mg, N=8) | Musculoskeletal Pain, Grade 3/4 (1B 150 mg, N=8) | Myalgia, All Grades (1B 150 mg, N=8) | Myalgia, Grade 3/4 (1B 150 mg, N=8) | Nausea, Grade 3/4 (1B 150 mg, N=8) | Neuralgia, Grade 3/4 (1B 150 mg, N=8) | Oedema, All Grades (1B 150 mg, N=8) | Oedema, Grade 3/4 (1B 150 mg, N=8) | Oral Candidiasis, Grade 3/4 (1B 150 mg, N=8) | Platelet Count Decreased, Grade 3/4 (1B 150 mg, N=8) | Pruritus, Grade 3/4 (1B 150 mg, N=8) | Vomiting, Grade 3/4 (1B 150 mg, N=8) | Weight Decreased, All Grades (1B 150 mg, N=8) | Weight Decreased, Grade 3/4 (1B 150 mg, N=8) | White Blood Cell Count Decreased, Grade 3/4 (1B 150 mg, N=8) | Abdominal Pain, All Grades (1B 200 mg, N=3) | Abdominal Pain, Grade 3/4 (1B 200 mg, N=3) | Alanine Aminotransferase Increased, All Grades (1B 200 mg, N=3) | Alanine Aminotransferase Increased, Grade 3/4 (1B 200 mg, N=3) | Alopecia, All Grades (1B 200 mg, N=3) | Alopecia, Grade 3/4 (1B 200 mg, N=3) | Amylase Increased, Grade 3/4 (1B 200 mg, N=3) | Anaemia, Grade 3/4 (1B 200 mg, N=3) | Asthenia, All Grades (1B 200 mg, N=3) | Asthenia, Grade 3/4 (1B 200 mg, N=3) | Blood Bilirubin Increased, All Grades (1B 200 mg, N=3) | Blood Bilirubin Increased, Grade 3/4 (1B 200 mg, N=3) | Blood Creatine Phosphokinase Increased, All Grades (1B 200 mg, N=3) | Blood Creatine Phosphokinase Increased, Grade 3/4 (1B 200 mg, N=3) | Blood Creatinine Increased, All Grades (1B 200 mg, N=3) | Blood Creatinine Increased, Grade 3/4 (1B 200 mg, N=3) | Decreased Appetite, All Grades (1B 200 mg, N=3) | Decreased Appetite, Grade 3/4 (1B 200 mg, N=3) | Dehydration, All Grades (1B 200 mg, N=3) | Dehydration, Grade 3/4 (1B 200 mg, N=3) | Diarrhoea, All Grades (1B 200 mg, N=3) | Diarrhoea, Grade 3/4 (1B 200 mg, N=3) | Dry Skin, All Grades (1B 200 mg, N=3) | Dry Skin, Grade 3/4 (1B 200 mg, N=3) | Dysgeusia, All Grades (1B 200 mg, N=3) | Dysgeusia, Grade 3/4 (1B 200 mg, N=3) | Eye Pain, All Grades (1B 200 mg, N=3) | Eye Pain, Grade 3/4 (1B 200 mg, N=3) | Fatigue, Grade 3/4 (1B 200 mg, N=3) | Folliculitis, All Grades (1B 200 mg, N=3) | Folliculitis, Grade 3/4 (1B 200 mg, N=3) | Gamma-Glutamyltransferase Increased, All Grades (1B 200 mg, N=3) | Gamma-Glutamyltransferase Increased, Grade 3/4 (1B 200 mg, N=3) | Headache, All Grades (1B 200 mg, N=3) | Headache, Grade 3/4 (1B 200 mg, N=3) | Hyperkalaemia, All Grades (1B 200 mg, N=3)
7 (87.5) n (%): Total, All Grades (1B 150 mg, N=8)
4 (50.0) n (%): Nausea, All Grades (1B 150 mg, N=8) | Neutropenia, All Grades (1B 150 mg, N=8) | Thrombocytopenia, All Grades (1B 150 mg, N=8) | Total, Grade 3/4 (1B 150 mg, N=8)
1 (12.5) n (%): Eye Pain, All Grades (1B 150 mg, N=8) | Fatigue, Grade 3/4 (1B 150 mg, N=8) | Folliculitis, All Grades (1B 150 mg, N=8) | Gamma-Glutamyltransferase Increased, All Grades (1B 150 mg, N=8) | Headache, All Grades (1B 150 mg, N=8) | Influenza Like Illness, All Grades (1B 150 mg, N=8) | Lethargy, All Grades (1B 150 mg, N=8) | Leukopenia, All Grades (1B 150 mg, N=8) | Leukopenia, Grade 3/4 (1B 150 mg, N=8) | Lymphopenia, Grade 3/4 (1B 150 mg, N=8) | Neuralgia, All Grades (1B 150 mg, N=8) | Oral Candidiasis, All Grades (1B 150 mg, N=8) | Platelet Count Decreased, All Grades (1B 150 mg, N=8) | Pruritus, All Grades (1B 150 mg, N=8) | White Blood Cell Count Decreased, All Grades (1B 150 mg, N=8)
3 (37.5) n (%): Neutropenia, Grade 3/4 (1B 150 mg, N=8) | Neutrophil Count Decreased, All Grades (1B 150 mg, N=8)
1 (33.3) n (%): Amylase Increased, All Grades (1B 200 mg, N=3) | Anaemia, All Grades (1B 200 mg, N=3) | Fatigue, All Grades (1B 200 mg, N=3)
2 (25.0) n (%): Diarrhoea, All Grades (1B 150 mg, N=8) | Fatigue, All Grades (1B 150 mg, N=8) | Lipase Increased, All Grades (1B 150 mg, N=8) | Lipase Increased, Grade 3/4 (1B 150 mg, N=8) | Lymphopenia, All Grades (1B 150 mg, N=8) | Neutrophil Count Decreased, Grade 3/4 (1B 150 mg, N=8) | Thrombocytopenia, Grade 3/4 (1B 150 mg, N=8) | Vomiting, All Grades (1B 150 mg, N=8)
